pEC50: −log10 of the molar value.
Key:
[1] = target: T1, PXR (Homo sapiens, UniProt O75469); experiment: Transactivation of PXR (unknown origin) expressed in human HepG2 cells assessed as maximum receptor activation response relative to control; format: cell-based; conditions: human HepG2 cells that express PXR, read-out: %max
T1 sequence (O75469 whole entry): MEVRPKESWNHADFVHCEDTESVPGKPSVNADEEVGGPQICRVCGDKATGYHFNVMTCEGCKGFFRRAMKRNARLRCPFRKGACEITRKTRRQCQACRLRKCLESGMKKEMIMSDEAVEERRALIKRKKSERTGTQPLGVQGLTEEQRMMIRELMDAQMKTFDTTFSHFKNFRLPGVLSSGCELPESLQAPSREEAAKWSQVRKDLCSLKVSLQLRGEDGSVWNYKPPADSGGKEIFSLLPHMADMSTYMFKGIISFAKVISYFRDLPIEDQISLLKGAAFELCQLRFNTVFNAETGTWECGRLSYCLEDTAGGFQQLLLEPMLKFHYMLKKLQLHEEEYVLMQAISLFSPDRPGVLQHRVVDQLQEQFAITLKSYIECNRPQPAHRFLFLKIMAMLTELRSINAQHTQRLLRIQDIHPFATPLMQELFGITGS

[2] = target: T2, Oxysterols receptor LXR-beta (Homo sapiens, UniProt P55055); experiment: Transactivation of human GAL4-fused LXRbeta expressed in African green monkey CV1 cells; format: cell-based
T2 sequence (P55055 whole entry): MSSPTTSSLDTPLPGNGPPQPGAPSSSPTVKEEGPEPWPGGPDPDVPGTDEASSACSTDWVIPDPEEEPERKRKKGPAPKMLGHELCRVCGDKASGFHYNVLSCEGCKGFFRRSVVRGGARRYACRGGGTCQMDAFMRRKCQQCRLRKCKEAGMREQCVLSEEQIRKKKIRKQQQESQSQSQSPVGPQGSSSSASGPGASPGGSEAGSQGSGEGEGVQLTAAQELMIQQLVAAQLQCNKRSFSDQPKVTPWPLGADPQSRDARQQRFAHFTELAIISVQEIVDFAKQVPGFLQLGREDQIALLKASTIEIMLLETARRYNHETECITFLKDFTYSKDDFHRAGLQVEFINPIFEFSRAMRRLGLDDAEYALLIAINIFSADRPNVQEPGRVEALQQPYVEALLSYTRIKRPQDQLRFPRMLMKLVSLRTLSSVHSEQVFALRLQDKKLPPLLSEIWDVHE

[3] = target: T3, Nuclear receptor ROR-alpha (Homo sapiens, UniProt P35398); experiment: Inverse agonist activity at human Gal4-fused RORalpha LBD (272 to 556 residues) expressed in human Jurkat cells measured after 18 hrs by steady-glo luciferase reporter gene assay; format: cell-based
T3 sequence (P35398 whole entry): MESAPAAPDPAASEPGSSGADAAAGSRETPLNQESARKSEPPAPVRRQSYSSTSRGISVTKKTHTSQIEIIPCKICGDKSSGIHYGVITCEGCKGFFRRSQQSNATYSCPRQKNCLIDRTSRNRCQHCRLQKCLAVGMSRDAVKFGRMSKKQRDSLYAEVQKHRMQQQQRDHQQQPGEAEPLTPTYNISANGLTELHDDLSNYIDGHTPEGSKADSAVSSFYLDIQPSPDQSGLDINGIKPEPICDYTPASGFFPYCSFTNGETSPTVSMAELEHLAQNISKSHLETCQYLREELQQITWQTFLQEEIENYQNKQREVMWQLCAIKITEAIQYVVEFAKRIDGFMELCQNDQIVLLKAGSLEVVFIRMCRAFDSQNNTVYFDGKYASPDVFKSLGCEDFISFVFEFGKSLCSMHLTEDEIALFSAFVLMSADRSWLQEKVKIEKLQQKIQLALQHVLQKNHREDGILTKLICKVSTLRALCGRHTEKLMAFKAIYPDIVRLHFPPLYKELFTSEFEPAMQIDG

[4] = target: T4, Oxysterols receptor LXR-alpha (Homo sapiens, UniProt Q13133); experiment: Transactivation of human GAL4-fused LXRalpha expressed in African green monkey CV1 cells; format: cell-based
T4 sequence (Q13133 whole entry): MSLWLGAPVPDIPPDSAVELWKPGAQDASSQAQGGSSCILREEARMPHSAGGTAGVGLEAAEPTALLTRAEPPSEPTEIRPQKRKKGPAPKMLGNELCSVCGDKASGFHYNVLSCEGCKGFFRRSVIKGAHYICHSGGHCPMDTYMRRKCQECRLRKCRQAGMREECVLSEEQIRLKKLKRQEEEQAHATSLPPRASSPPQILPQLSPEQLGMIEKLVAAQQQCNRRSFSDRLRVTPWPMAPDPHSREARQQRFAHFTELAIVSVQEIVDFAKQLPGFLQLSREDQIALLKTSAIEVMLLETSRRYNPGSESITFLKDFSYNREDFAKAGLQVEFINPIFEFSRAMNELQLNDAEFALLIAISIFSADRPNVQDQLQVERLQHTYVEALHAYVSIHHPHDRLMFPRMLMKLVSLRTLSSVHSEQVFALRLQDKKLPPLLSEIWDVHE

[5] = target: T5, Nuclear receptor ROR-beta (Homo sapiens, UniProt Q92753); experiment: Inverse agonist activity at human Gal4-fused RORbeta LBD (200 to 559 residues) expressed in human Jurkat cells measured after 18 hrs by steady-glo luciferase reporter gene assay; format: cell-based
T5 sequence (Q92753 whole entry): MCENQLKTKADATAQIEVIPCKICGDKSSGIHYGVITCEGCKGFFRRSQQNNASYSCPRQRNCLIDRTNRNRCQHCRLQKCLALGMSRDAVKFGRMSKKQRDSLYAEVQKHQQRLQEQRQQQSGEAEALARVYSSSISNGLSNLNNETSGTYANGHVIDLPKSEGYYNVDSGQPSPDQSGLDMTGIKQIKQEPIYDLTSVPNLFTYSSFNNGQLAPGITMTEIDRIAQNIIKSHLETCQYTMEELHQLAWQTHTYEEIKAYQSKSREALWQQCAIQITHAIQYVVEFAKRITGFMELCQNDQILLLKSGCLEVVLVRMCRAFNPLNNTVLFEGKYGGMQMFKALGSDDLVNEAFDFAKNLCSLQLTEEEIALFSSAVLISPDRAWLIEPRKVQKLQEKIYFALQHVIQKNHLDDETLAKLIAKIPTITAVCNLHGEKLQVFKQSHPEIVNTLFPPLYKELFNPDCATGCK

[6] = target: T6, Nuclear receptor subfamily 1 group I member 2 (Homo sapiens, UniProt O75469); experiment: Transactivation of PXR (unknown origin) expressed in human HepG2 cells; format: cell-based
T6 sequence (O75469 whole entry): T1 sequence (O75469 whole entry)

[7] = Stability in human liver microsomes assessed as parent compound remaining after 10 mins; format: ADME, Microsome; conditions: liver microsomes, read-out: Stability
[8] = Stability in mouse liver microsomes assessed as parent compound remaining after 10 mins; format: ADME, Microsome; conditions: liver microsomes, read-out: Stability

Emax [1] [%] | pEC50 [2] | pEC50 [3] | pEC50 [4] | pEC50 [5] | pEC50 [6] | remaining at 10 min [7] [%] | remaining at 10 min [8] [%] | SMILES
43 | < 5.12 | < 4.40 | < 5.12 | < 4.40 | < 4.48 | 100 | 100 | O=C(O)[C@@H]1C[C@@H]2[C@H](C1)[C@H]2C(=O)N1CC[C@](c2ccc(C(F)(C(F)(F)F)C(F)(F)F)cc2)(S(=O)(=O)c2ccc(F)cc2)C1
5 | < 5.12 | < 4.40 | < 5.12 | < 4.40 | < 4.30 | 90 | 94 | O=C(O)C12CCC(C(=O)N3CC[C@](c4ccc(C(F)(C(F)(F)F)C(F)(F)F)cc4)(S(=O)(=O)c4ccc(F)cc4)C3)(CC1)OC2
62 | < 5.12 | < 4.40 | < 5.12 | < 4.40 | < 4.77 | 100 | 70 | O=C([C@H]1CC[C@](F)(C(=O)O)CC1)N1CC[C@](c2ccc(C(F)(C(F)(F)F)C(F)(F)F)cc2)(S(=O)(=O)c2ccc(F)cc2)C1
31 | < 5.12 | < 4.40 | < 5.12 | < 4.40 | 4.97 | – | – | O=C(O)[C@H]1CC[C@](F)(C(=O)N2CC[C@](c3ccc(C(F)(C(F)(F)F)C(F)(F)F)cc3)(S(=O)(=O)c3ccc(F)cc3)C2)CC1
– | < 5.12 | < 4.40 | < 5.12 | < 4.40 | – | 97 | – | O=C(O)[C@H]1CC[C@H](C(=O)N2CC[C@](c3ccc(C(F)(C(F)(F)F)C(F)(F)F)cc3)(S(=O)(=O)c3ccc(F)cc3)C2)CC1
– | < 5.12 | < 4.40 | < 5.12 | < 4.40 | – | – | – | CCC[C@]1(C(=O)N2CC[C@](c3ccc(C(F)(C(F)(F)F)C(F)(F)F)cc3)(S(=O)(=O)c3ccc(F)cc3)C2)CC[C@H](C(=O)O)CC1
6 | < 5.12 | < 4.40 | < 5.12 | < 4.40 | < 4.30 | 100 | – | CC[C@]1(C(=O)O)CC[C@H](C(=O)N2CC[C@](c3ccc(C(F)(C(F)(F)F)C(F)(F)F)cc3)(S(=O)(=O)c3ccc(F)cc3)C2)CC1
– | < 5.12 | < 4.40 | < 5.12 | < 4.40 | – | – | – | COC(=O)[C@H]1CC[C@H](C(=O)N2CC[C@](c3ccc(C(F)(C(F)(F)F)C(F)(F)F)cc3)(S(=O)(=O)c3ccc(F)cc3)C2)CC1
3 | < 5.12 | < 4.40 | < 5.12 | < 4.40 | < 4.30 | – | – | COC1(C(=O)N2CC[C@](c3ccc(C(F)(C(F)(F)F)C(F)(F)F)cc3)(S(=O)(=O)c3ccc(F)cc3)C2)CCS(=O)(=O)CC1
11 | < 5.12 | < 4.40 | < 5.12 | < 4.40 | < 4.30 | 100 | 84 | O=C(O)[C@@H]1[C@@H]2C[C@@H](C(=O)N3CC[C@](c4ccc(C(F)(C(F)(F)F)C(F)(F)F)cc4)(S(=O)(=O)c4ccc(F)cc4)C3)C[C@@H]21
18 | < 5.12 | < 4.40 | < 5.12 | < 4.40 | < 4.30 | 97 | 93 | C[C@]1(C(=O)O)CC[C@H](C(=O)N2CC[C@](c3ccc(C(F)(C(F)(F)F)C(F)(F)F)cc3)(S(=O)(=O)c3ccc(F)cc3)C2)CC1
15 | < 5.12 | < 4.40 | < 5.12 | < 4.40 | < 4.30 | 100 | – | O=C(O)[C@H]1[C@@H]2C[C@@H](C(=O)N3CC[C@](c4ccc(C(F)(C(F)(F)F)C(F)(F)F)cc4)(S(=O)(=O)c4ccc(F)cc4)C3)C[C@@H]21
– | < 5.12 | < 4.40 | < 5.12 | < 4.40 | – | – | – | O=C(O)C12CCC(C(=O)N3CC[C@](c4ccc(C(F)(C(F)(F)F)C(F)(F)F)cc4)(S(=O)(=O)c4ccc(F)cc4)C3)(CC1)C2
5 | < 5.12 | < 4.40 | < 5.12 | < 4.40 | < 4.30 | – | – | O=C(N1CC[C@](c2ccc(C(F)(C(F)(F)F)C(F)(F)F)cc2)(S(=O)(=O)c2ccc(F)cc2)C1)C12CCC(C(=O)O)(CC1)OC2
69 | < 5.12 | < 4.40 | < 5.12 | < 4.40 | < 4.66 | 82 | 94 | O=C([C@H]1CC[C@@](F)(C(=O)O)CC1)N1CC[C@](c2ccc(C(F)(C(F)(F)F)C(F)(F)F)cc2)(S(=O)(=O)c2ccc(F)cc2)C1
10 | < 5.12 | < 4.40 | < 5.12 | < 4.40 | < 4.30 | – | – | CC1(C(=O)N2CC[C@](c3ccc(C(F)(C(F)(F)F)C(F)(F)F)cc3)(S(=O)(=O)c3ccc(F)cc3)C2)CCS(=O)(=O)CC1
7 | < 5.12 | < 4.40 | < 5.12 | < 4.40 | < 4.30 | 100 | 88 | COC[C@]1(C(=O)N2CC[C@](c3ccc(C(F)(C(F)(F)F)C(F)(F)F)cc3)(S(=O)(=O)c3ccc(F)cc3)C2)CC[C@H](C(=O)O)CC1
94 | < 5.12 | < 4.40 | < 5.12 | < 4.40 | < 4.74 | 82 | 95 | CO[C@]1(C(=O)N2CC[C@](c3ccc(C(F)(C(F)(F)F)C(F)(F)F)cc3)(S(=O)(=O)c3ccc(F)cc3)C2)CC[C@H](C(=O)O)CC1

From ChEMBL document CHEMBL4387773, “Identification of potent, selective and orally bioavailable phenyl ((R)-3-phenylpyrrolidin-3-yl)sulfone analogues as RORγt inverse agonists” (Bioorg Med Chem Lett, 2019)
